The values below come from ChEMBL document CHEMBL5226389, “Isolation of the Anti-Inflammatory Agent Myceliostatin from a Methionine-Enriched Culture of Myceliophthora thermophila ATCC 42464” (J Nat Prod, 2023).

Calls of active or inactive are those of the source. The calls are words filed in the database; no cut-off is given here.

In data set [1] the test system is RAW264.7. Kind of data set: Cytotoxicity against mouse RAW264.7 cells assessed as reduction in cell viability at 3 microg/ml incubated for 24 hrs by MTT assay. Conditions: raw264.7, 24 h, dose 3 µg/ml. In kind it is toxicity, cell-based. A general note: Formazan colour is commonly taken as a measure of viable cells.
Data set [2] deals with RAW264.7. Kind of data set: Inhibition of LPS-induced NO production in mouse RAW264.7 cells at 0.3 to 3 microg/ml incubated for 24 hrs by griess reagent based microplate reader analysis. In kind it is functional, cell-based. The following applies: dose 0.3-3 µg/ml. For orientation: Nitrite, measured by Griess reagent, commonly stands in for NO production.
Data set [3] has as its system RAW264.7. Kind of data set: Antiinflammatory activity in mouse RAW264.7 cells assessed as inhibition of LPS-induced NFkB p65 activation at 3 to 10 microg/ml for 2 hrs followed by LPS stimulation for 2 hrs. Type of data set: functional, cell-based. The following applies: dose 3-10 µg/ml, time 4.0 hrs.
Data set [4] relates to RAW264.7. Kind of data set: Antiinflammatory activity in LPS-stimulated mouse RAW264.7 cells assessed as inhibition of IL-6 level incubated for 24 hrs by RT-PCR analysis. Type of data set: functional, cell-based.
The test system of data set [5] is RAW264.7. Kind of data set: Antiinflammatory activity in LPS-stimulated mouse RAW264.7 cells assessed as inhibition of IL-1beta level incubated for 24 hrs by RT-PCR analysis. In kind it is functional, cell-based.
Data set [6] relates to RAW264.7. Kind of data set: Inhibition of LPS-induced ROS production in mouse RAW264.7 cells at 3 to 10 microg/ml preincubated for 1 hr followed by LPS stimulation and measured after 24 hrs by DCFH-DA staining based fluorescence analysis. Type of data set: functional, cell-based. The following applies: dose 3-10 µg/ml, time 25.0 hrs.
The subject of data set [7] is RAW264.7. Kind of data set: Cytotoxicity against mouse RAW264.7 cells assessed as reduction in cell viability at 10 microg/ml incubated for 4 hrs by MTT assay. Type of data set: toxicity, cell-based. Conditions: raw264.7, 4 h, dose 10 µg/ml.

For the molecule `C/C=C(\C)[C@H]1C(C)=C[C@@]2(C)C[C@@H](C)CC[C@@H]2[C@H]1C(=O)C1=C(SC)[C@](O)(CC(C)C)NC1=O`, the Activity entry in the data set on RAW264.7 [1] is “Non-Toxic”. Further, the inhibition result with RAW264.7 [2] is “Active”.
With `C/C=C(\C)[C@H]1C(C)=C[C@@]2(C)C[C@@H](C)CC[C@@H]2[C@H]1C(=O)C1=C(SC)[C@@](O)(CC(C)C)NC1=O`, the Activity result in the data set with RAW264.7 [1] and in the data set on RAW264.7 [7] was “Non-Toxic” each time. The inhibition entry in the data set with RAW264.7 [2] and in the data set with RAW264.7 [6] was “Active” each time. The outcome with RAW264.7 [3], in the data set with RAW264.7 [4] and with RAW264.7 [5] was Active.
